Measured values taken from article PMC8508785, “Synthesis and In Silico Docking of New Pyrazolo[4,3-e]pyrido[1,2-a]pyrimidine-based Cytotoxic Agents” (International Journal of Molecular Sciences, 2021).

How the values were obtained:
[1] = system: A375 cells (malignant melanoma); test: SRB cytotoxicity assay, A375; type: cell-based; settings: Homo sapiens, A-375, 72 h of treatment
Description: (§1) The synthesized compounds were evaluated for their cytotoxic activity by a photometric […] (SRB) on different human cancer cell lines, malignant melanoma (A375), colon (HT29), breast (MCF-7), human ovarian carcinoma (A2780) and pharynx carcinoma (FaDu); for comparison, non-malignant mouse embryonic fibroblasts (NIH 3T3) and human embryonic kidney cells (HEK293) were included; doxorubicin (DX) was used as a positive control.
(§2) The cell lines were obtained from Department of oncology (MartinLutherUniversity Halle-Wittenberg). Cultures were maintained as monolayers in RPMI 1640 medium with L-glutamine (Capricorn Scientific GmbH, Ebsdorfergrund, Germany) supplemented with 10% heat-inactivated fetal bovine serum (Sigma-Aldrich Chemie GmbH, Steinheim, Germany) and penicillin/streptomycin (1%, Capricorn Scientific GmbH, Ebsdorfergrund, Germany) at 37 °C in a humidified atmosphere with 5% CO2.
(§3) The cytotoxicity of the compounds was evaluated using the sulforhodamine-B (Kiton-Red S, ABCR: Karlsruhe, Germany) microculture colorimetric assay using […] cells in 96-well plates with the seeding of the cells on day 0,by applying appropriate cell densities to prevent confluence of the cells during the period of the experiment. On day 1, the cells were treated with six different concentrations (1, 3, 7, 12, 20 and 30 μM); thereby, the final concentration of DMSO was always <0.5%, generally regarded as non-toxic to the cells. On day 4, the supernatant medium was discarded; the cells were fixed with 10% trichloroacetic acid. After another day at 4 °C, the cells were washed in a strip washer and dyed with the SRB solution (100 μL, 0.4% in 1% acetic acid) for about 20 min to be followed by washing of the plates (four times, 1% acetic acid) and air-drying overnight. Furthermore, Tris base solution (200 μL, 10 mM) was added to each well, and absorbance was measured at λ = 570 nm employing a reader (96 wells, Tecan Spectra, Crailsheim, Germany). The EC50 values were averaged from three independent experiments performed each in triplicate, calculated from semi-logarithmic dose–response curves applying a non-linear four-parameter Hill-slope equation (GraphPad Prism5 vom Graphpad Software Inc., San Diego, USA; the variables top and bottom were set to 100 and 0, respectively).

HT29 cells (colon) = test: SRB cytotoxicity assay, HT29; type: cell-based; settings: Homo sapiens, HT-29, 72 h of treatment
Description: as §1, §2, §3

MCF-7 cells (breast) = test: SRB cytotoxicity assay, MCF-7; type: cell-based; settings: Homo sapiens, MCF7, 72 h of treatment
Description: as §1, §2, §3

[2] = system: A2780 cells (human ovarian carcinoma); test: SRB cytotoxicity assay, A2780; type: cell-based; settings: 72 h of treatment
Description: as §1, §2, §3

[3] = system: FaDu cells (pharynx carcinoma); test: SRB cytotoxicity assay, FaDu; type: cell-based; settings: Homo sapiens, 72 h of treatment
Description: as §1, §2, §3

[4] = system: NIH 3T3 non-malignant mouse embryonic fibroblasts; test: SRB cytotoxicity assay, NIH 3T3; type: cell-based; settings: NIH3T3, 72 h of treatment, non-malignant NIH 3T3
Description: as §1, §2, §3

[5] = system: HEK293 human embryonic kidney cells; test: SRB cytotoxicity assay, HEK293; type: cell-based; settings: 72 h of treatment, non-malignant HEK293
Description: as §1, §2, §3

[6] = system: human tumor cell lines A375, HT29, MCF7, A2780, FaDu; test: SRB cytotoxicity assay, panel of human tumor cell lines; type: cell-based; settings: one statement for several/all five cancer cell lines, read-out: EC50 across the cancer cell lines
Description: as §1, §2
as §3, with “After another day at 4 °C, the cells were washed in a strip washer and dyed with the SRB solution (100 μL, 0.4% in 1% acetic acid) for about 20 min to be followed by washing of the plates (four times, 1% acetic acid) and air-drying overnight.” left out

melting point | SMILES | EC50 [1] | EC50 (HT29 cells (colon)) | EC50 (MCF-7 cells (breast)) | EC50 [2] | EC50 [3] | EC50 [4] | EC50 [5] | EC50 [6]
132 °C | Cc1nn(-c2ccccc2)c(N)c1C#N [Compound 3, 5-Amino-3-methyl-1-phenyl-1H-pyrazole-4-carbonitrile] | > 30 µM | > 30 µM | > 30 µM | > 30 µM | > 30 µM | > 30 µM | > 30 µM | > 30 µM
109 °C | CC(=O)/C=C(\C)Nc1c(C#N)c(C)nn1-c1ccccc1 [Compound 5, 3-Methyl-5-{[(1E)-1-methyl-3-oxobut-1-en-1-yl]amino}-1-phenyl-1H-pyrazole-4-carbonitrile] | > 30 µM | > 30 µM | > 30 µM | > 30 µM | > 30 µM | > 30 µM | > 30 µM | > 30 µM
167 °C | CC(=O)C1=C(C)N2C(=C(C#N)C1c1ccc(Cl)cc1)N=C(N)c1c(C)nn(-c3ccccc3)c12 (stereo not shown) [Compound 7a, 8-Acetyl-4-amino-7-(4-chlorophenyl)-3,9-dimethyl-1-phenyl-1,7-dihydropyrazolo[4,3-e] Pyrido[1,2-a]pyrimidine-6-carbonitrile] | 19.3 ± 3 µM | 29.9 ± 1.4 µM | 17.2 ± 1.4 µM | 18 ± 3 µM | > 30 µM | 23 ± 1.4 µM | 15.8 ± 2 µM | –
167 °C | CC(=O)C1=C(C)N2C(=C(C#N)C1c1ccc(C)cc1)N=C(N)c1c(C)nn(-c3ccccc3)c12 (stereo not shown) [Compound 7b] | 12.9 ± 1.6 µM | 17.5 ± 1.8 µM | 12.2 ± 1.3 µM | 14.6 ± 2.2 µM | 22.3 ± 2.7 µM | 21.3 ± 0.9 µM | 12.4 ± 0.9 µM | –
198 °C | CC(=O)C1=C(C)N2C(=C(C#N)C1c1ccccc1)N=C(N)c1c(C)nn(-c3ccccc3)c12 (stereo not shown) [Compound 7c, 8-Acetyl-4-amino-3,9-dimethyl-1,7-diphenyl-1,7-dihydropyrazolo[4,3-e]Pyrido[1,2-a]pyrimidine-6-carbonitrile] | 19.3 ± 3.8 µM | > 30 µM | 19.5 ± 1.1 µM | 25.4 ± 2.5 µM | > 30 µM | > 30 µM | 7.7 ± 1.1 µM | –
160 °C | COc1ccc(C2C(C#N)=C3N=C(N)c4c(C)nn(-c5ccccc5)c4N3C(C)=C2C(C)=O)cc1 (stereo not shown) [Compound 7d, 8-Acetyl-4-Amino-7-(4-methoxyphenyl)-3,9-dimethyl-1-phenyl-1,7-dihydropyrazolo[4,3-e] Pyrido[1,2-a]pyrimidine-6-carbonitrile] | 21.5 ± 3.6 µM | 28.3 ± 3.5 µM | 18.4 ± 2.3 µM | 21.7 ± 3.9 µM | > 30 µM | > 30 µM | 16.7 ± 1.2 µM | –
192 °C | CC(=O)C1=C(C)N2C(=C(C#N)C1c1ccc(Br)cc1)N=C(N)c1c(C)nn(-c3ccccc3)c12 (stereo not shown) [Compound 7e, 8-Acetyl-4-amino-7-(4-bromophenyl)-3,9-dimethyl-1-phenyl-1,7-dihydropyrazolo[4,3-e] Pyrido[1,2-a]pyrimidine-6-carbonitrile] | 9.4 ± 1.2 µM | 13.3 ± 1.8 µM | 9.2 ± 0.7 µM | 9.1 ± 1.6 µM | 13.5 ± 1.5 µM | 12.3 ± 0.7 µM | 6.6 ± 0.6 µM | 9.1 to 13.5 µM
259 °C | CC(=O)C1=C(C)N2C(=C(C#N)C1c1ccc(F)cc1)N=C(N)c1c(C)nn(-c3ccccc3)c12 (stereo not shown) [Compound 7f, 8-Acetyl-4-amino-7-(4-fluorophenyl)-3,9-dimethyl-1-phenyl-1,7-sihydropyrazolo[4,3-e] Pyrido[1,2-a]pyrimidine-6-carbonitrile] | 18.1 ± 3.3 µM | 24.7 ± 4.4 µM | 19.2 ± 1.3 µM | 19.2 ± 3.9 µM | > 30 µM | 24.1 ± 2.8 µM | 14.7 ± 1.4 µM | –
164 °C | CC(=O)C1=C(C)N2C(=C(C#N)C1c1ccc([N+](=O)[O-])cc1)N=C(N)c1c(C)nn(-c3ccccc3)c12 (stereo not shown) [Compound 7g, 8-Acetyl-4-amino-3,9-dimethyl-7-(4-nitrophenyl)-1-phenyl-1,7-dihydropyrazolo[4,3-e] Pyrido[1,2-a]pyrimidine-6-carbonitrile] | 16.2 ± 2 µM | 25.9 ± 3.4 µM | 15.7 ± 2.2 µM | 14.5 ± 2.2 µM | > 30 µM | > 30 µM | 17 ± 1.3 µM | –
260 °C | COc1ccc(C2C(C#N)=C3N=C(N)c4c(C)nn(-c5ccccc5)c4N3C(C)=C2C(C)=O)cc1OC (stereo not shown) [Compound 7h, 8-Acetyl-4-amino-7-(3,4-dimethoxyphenyl)-3,9-dimethyl-1-phenyl-1,7-dihydropyrazolo[4,3-e] Pyrido[1,2-a]pyrimidine-6-carbonitrile] | 22.1 ± 4.9 µM | > 30 µM | 25.1 ± 2.8 µM | 27.5 ± 8.1 µM | > 30 µM | > 30 µM | 24 ± 3.4 µM | –
235 °C | CC(=O)C1=C(C)N2C(=C(C#N)C1c1ccc(Cl)c(Cl)c1)N=C(N)c1c(C)nn(-c3ccccc3)c12 (stereo not shown) [Compound 7i, 8-Acetyl-4-amino-7-(3,4-dichlorophenyl)-3,9-dimethyl-1-phenyl-1,7-dihydropyrazolo[4,3-e] Pyrido[1,2-a]pyrimidine-6-carbonitrile] | – | – | – | – | – | – | – | –
262 °C | CC(=O)C1=C(C)N2C(=C(C#N)C1c1ccc([N+](=O)[O-])s1)N=C(N)c1c(C)nn(-c3ccccc3)c12 (stereo not shown) [Compound 7j, 8-Acetyl-4-amino-3,9-dimethyl-7-(5-nitro-2-thienyl)-1-phenyl-1,7-dihydropyrazolo[4,3-e] Pyrido[1,2-a]pyrimidine-6-carbonitrile] | – | – | – | – | – | – | – | –
270 °C | CC(=O)C1=C(C)N2C(=C(C#N)C1c1ccc3ccccc3c1)N=C(N)c1c(C)nn(-c3ccccc3)c12 (stereo not shown) [Compound 7k, 8-Acetyl-4-amino-3,9-dimethyl-7-(2-naphthyl)-1-phenyl-1,7-dihydropyrazolo[4,3-e] Pyrido[1,2-a]pyrimidine-6-carbonitrile] | – | – | – | – | – | – | – | –
306 °C | CC(=O)C1=C(C)N2C(=C(C#N)C1c1cccnc1)N=C(N)c1c(C)nn(-c3ccccc3)c12 (stereo not shown) [Compound 7l, 8-Acetyl-4-amino-3,9-dimethyl-1-phenyl-7-pyridin-3-yl-1,7-dihydropyrazolo[4,3-e] Pyrido[1,2-a]pyrimidine-6-carbonitrile] | – | – | – | – | – | – | – | –
– | COc1cccc2c1C(=O)c1c(O)c3c(c(O)c1C2=O)C[C@@](O)(C(=O)CO)C[C@@H]3O[C@H]1C[C@H](N)[C@H](O)[C@H](C)O1 [DX, doxorubicin, reference compound] | – | 0.9 ± 0.01 µM | 1.1 ± 0.3 µM | 0.01 ± 0.01 µM | – | 0.4 ± 0.07 µM | – | –
